Data reported in patent publication US10927076B2, “HSP90B N-terminal isoform-selective inhibitors” (priority 2017, dated 2021).
Like-named read-outs stand apart in the source and are kept apart here.

Key:
MCF-7 = experiment: Anti-proliferation activity; format: cell-based; conditions: Homo sapiens, MCF7
SkBr3 = experiment: Anti-proliferation activity; format: cell-based; conditions: Homo sapiens, SK-BR-3
NCI-H23 cells = experiment: Anti-proliferation assay (MTS/PMS, 72 h); format: cell-based; conditions: Homo sapiens, non-small cell lung cancer
Protocol: Cells were grown to confluence and seeded at 2000 cells/well/0.1 mL in a 96-well plate and placed back in the incubator for 24 h. Compounds or vehicle were administered at the desired concentrations (1% DMSO final concentration) and incubated for 72 h. The % viable cells was determined using the MTS/PMS cell proliferation kit (Promega) per the manufacturer's instructions. Cells treated with vehicle were normalized to 100% proliferation and values adjusted accordingly.

Hsp90α = Hsp90α (Homo sapiens (Human), UniProt P07900); experiment: Fluorescence polarization assay (FITC-GDA tracer displacement); format: binding
Protocol: (§1) Florescence Polarization.
(§2) Assay was performed in 96-well format in black, flat bottom plates (Santa Cruz Biotechnology) with a final volume of 100 μL. […] Compounds were tested in triplicate wells (1% DMSO final concentration). For each plate, wells containing buffer only (background), tracer in buffer only (low polarization control), and protein and tracer in buffer with 1% DMSO (highpolarization control) were included. Plates were incubated at 4° C. with rocking for 24 h. […] Polarization values were correlated to % tracer bound and compound concentrations. The concentration at which the tracer was 50% displaced by the inhibitor was determined using Graphpad Prism.

Hsp90β = Hsp90β (Homo sapiens (Human), UniProt P08238); experiment: as above; format: binding; conditions: for Selectivity: Hsp90β over Hsp90α
Hsp90β, sequence (P08238 whole entry): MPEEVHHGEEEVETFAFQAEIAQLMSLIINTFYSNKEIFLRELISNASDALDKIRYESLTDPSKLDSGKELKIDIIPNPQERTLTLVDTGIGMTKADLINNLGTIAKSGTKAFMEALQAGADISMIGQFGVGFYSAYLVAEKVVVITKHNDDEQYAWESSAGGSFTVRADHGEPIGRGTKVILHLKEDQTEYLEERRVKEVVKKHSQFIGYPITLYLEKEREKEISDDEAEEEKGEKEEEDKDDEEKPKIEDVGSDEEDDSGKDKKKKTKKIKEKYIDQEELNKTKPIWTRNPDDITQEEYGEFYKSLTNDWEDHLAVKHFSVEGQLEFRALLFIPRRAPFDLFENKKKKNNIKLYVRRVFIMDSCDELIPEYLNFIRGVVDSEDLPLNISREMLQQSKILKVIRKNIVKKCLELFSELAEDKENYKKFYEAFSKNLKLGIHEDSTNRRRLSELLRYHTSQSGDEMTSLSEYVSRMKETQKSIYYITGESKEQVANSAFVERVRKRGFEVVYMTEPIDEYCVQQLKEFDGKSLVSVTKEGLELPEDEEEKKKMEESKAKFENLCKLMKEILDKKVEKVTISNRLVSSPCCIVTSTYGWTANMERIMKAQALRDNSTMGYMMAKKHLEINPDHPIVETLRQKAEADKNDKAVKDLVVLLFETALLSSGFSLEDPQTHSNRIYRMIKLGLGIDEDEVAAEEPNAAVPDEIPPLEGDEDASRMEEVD
Protocol: as §1, §2

Grp94 = experiment: as above; format: binding
Protocol: as §1, §2

[1] = fluorescence polarization, read-out: Kd Hsp90β

| Compound | Kd (Hsp90α; fluorescence polarization) | Kd (Hsp90β; [1]) | further results |
| --- | --- | --- | --- |
| CC(C)c1cc(C(=O)N2Cc3ccccc3C2)c(O)c2cnoc12 |  |  | IC50 (MCF-7): 28.3 ± 1.47 µM; IC50 (SkBr3): 38.2 ± 2.75 µM |
| CC(C)c1cc(C(=O)N2Cc3ccc(F)cc3C2)c(O)c2cnoc12 |  |  | IC50 (NCI-H23 cells): 5.76 µM; IC50 (MCF-7): 16.6 µM |
| CC(C)c1cc(C(=O)N2Cc3ccc(F)cc3C2)c(O)c(CO)c1O |  |  | IC50 (NCI-H23 cells): 2.13 ± 0.7 µM; IC50 (MCF-7): 13.2 µM |
| CC(C)c1cc(C(=O)N2Cc3ccccc3C2)c(O)c2[nH]ncc12 |  |  | IC50 (NCI-H23 cells): 13.7 µM; IC50 (MCF-7): 19.1 µM; IC50 (SkBr3): 29.7 µM |
| O=C(c1cc(Br)c2cn[nH]c2c1O)N1Cc2ccccc2C1 |  |  | IC50 (NCI-H23 cells): 13.4 µM; IC50 (SkBr3): 23.6 µM |
| CC(C)c1cc(C(=O)N2Cc3ccccc3C2)c(O)cc1CBr [Br] | 4.98 ± 0.97 µM | 0.73 ± 0.11 µM |  |
| CCc1cc(O)c(C(=O)N2Cc3ccccc3C2)cc1C(C)C [CH3] | > 50 µM | > 50 µM |  |
| CC(C)c1cc(C(=O)N2Cc3ccccc3C2)c(O)cc1C=O [CHO] |  |  | Kd (Hsp90α): 1.21 ± 0.12 µM |
| CC(C)c1cc(C(=O)N2Cc3ccccc3C2)c(O)cc1CC#N [CN] | 2.28 ± 0.12 µM |  |  |
| CC(C)c1cc(C(=O)N2Cc3ccccc3C2)c(O)cc1CCl [Cl] | > 100 µM | 25.2 ± 1.45 µM |  |
| CC(C)c1ccc(O)c(C(=O)N2Cc3ccccc3C2)c1 [Compound 1] | 3.21 µM | 1.63 µM | selectivity for Hsp90β over Hsp90α (Hsp90β): ~2 fold |
| CC(C)c1cc(C(=O)N2Cc3ccccc3C2)c(O)cc1CC#N [Compound 2, 2-(5-Hydroxy-4-(isoindoline-2-carbonyl)-2-isopropylphenyl)acetonitrile] |  | 0.97 µM | selectivity for Hsp90β over Hsp90α (Hsp90β): ~2.5 fold |
| COCc1cc(O)c(C(=O)N2Cc3ccccc3C2)cc1C(C)C [Compound 3, (2-Hydroxy-5-isopropyl-4-(methoxymethyl)phenyl)(isoindolin-2-yl)methanone] |  |  | binding to Hsp90α (Hsp90α; at 10 μM): did not bind; binding to Hsp90β (Hsp90β; at 10 μM): did not bind |
| CC(C)c1cc(C(=O)N2Cc3ccccc3C2)c(O)cc1C=O [Compound 4, 5-Hydroxy-4-(isoindoline-2-carbonyl)-2-isopropylbenzaldehyde] |  |  | Kd (Hsp90α): 1.55 µM |
| CC(C)c1cc(C(=O)N2Cc3ccccc3C2)c(O)c(C=O)c1O [KUNB1, 2,6-Dihydroxy-3-(isoindoline-2-carbonyl)-5-isopropylbenzaldehyde] |  | ≥ 100 µM |  |
| C=Cc1c(O)c(C(=O)N2Cc3ccccc3C2)cc(C(C)C)c1O [KUNB2, (2,4-Dihydroxy-5-isopropyl-3-vinylphenyl)(isoindolin-2-yl)methanone] |  | 5.24 µM |  |
| CCc1c(O)c(C(=O)N2Cc3ccccc3C2)cc(C(C)C)c1O [KUNB3, (3-Ethyl-2,4-dihydroxy-5-isopropylphenyl)(isoindolin-2-yl)methanone] |  | 3.31 µM |  |
| CC(C)c1cc(C(=O)N2Cc3ccccc3C2)c(O)c(CN)c1O [KUNB4, (3-(Aminomethyl)-2,4-dihydroxy-5-isopropylphenyl)(isoindolin-2-yl)methanone] |  |  | Kd (Hsp90β): ≥ 100 µM |
| CCCc1c(O)c(C(=O)N2Cc3ccccc3C2)cc(C(C)C)c1OCOC [KUNB5, (2-Hydroxy-5-isopropyl-4-(methoxymethoxy)-3-propylphenyl)(isoindolin-2-yl)methanone] |  |  | Kd (Hsp90β): 6.3 µM |

| Compound | Kd (Hsp90α; fluorescence polarization) | Kd (Hsp90β; [1]) | further results |
| --- | --- | --- | --- |
| C=CCc1c(O)c(C(=O)N2Cc3ccccc3C2)cc(C(C)C)c1OCOC [KUNB6, (3-Allyl-2-hydroxy-5-isopropyl-4-(methoxymethoxy)phenyl)(isoindolin-2-yl)methanone] |  |  | Kd (Hsp90β): ≥ 100 µM |
| COCOc1c(C(C)C)cc(C(=O)N2Cc3ccccc3C2)c(O)c1CCO [KUNB7, (2-Hydroxy-3-(2-hydroxyethyl)-5-isopropyl-4-(methoxymethoxy)phenyl) (isoindolin-2-yl)methanone] |  |  | Kd (Hsp90β): ≥ 100 µM |
| CC(C)c1cc(C(=O)N2Cc3ccccc3C2)c(O)c(CO)c1O [KUNB14, (2,4-Dihydroxy-3-(hydroxymethyl)-5-isopropylphenyl)(isoindolin-2-yl)methanone] |  | 4.27 µM |  |
| CC(C)c1cc(C(=O)N2Cc3ccccc3C2)c(O)c2c1C1C=NNC1O2 (stereo not drawn) [KUNB17] | ≥ 10 µM | 0.72 µM | Selectivity (Hsp90β): ≥14 |
| CC(C)c1cc(C(=O)N2Cc3ccccc3C2)c(O)c2cn[nH]c12 [KUNB18] | 82.5 µM | 3.71 µM | Selectivity (Hsp90β): 22 |
| CC(C)c1cc(C(=O)N2Cc3ccccc3C2)c(O)c2nc[nH]c12 [KUNB19] | ≥ 100 µM | 6.3 µM | Selectivity (Hsp90β): 1.6 |
| CC(C)c1cc(C(=O)N2Cc3ccccc3C2)c(O)c2c1CCC2=O [KUNB22] | 9.3 µM | 0.11 µM | Selectivity (Hsp90β): 85 |
| CCC1Cc2c(C(C)C)cc(C(=O)N3Cc4ccccc4C3)c(O)c2C1=O (stereo not drawn) [KUNB23] | ≥ 10 µM | 0.58 µM | Selectivity (Hsp90β): ≥17 |
| CCCC1Cc2c(C(C)C)cc(C(=O)N3Cc4ccccc4C3)c(O)c2C1=O (stereo not drawn) [KUNB24] | ≥ 100 µM | 2.7 µM | Selectivity (Hsp90β): ≥37 |
| CC(C)c1cc(C(=O)N2Cc3ccccc3C2)c(O)c2c1CNC2=O [KUNB25] | ≥ 10 µM | 0.33 µM | Selectivity (Hsp90β): ≥30 |
| CCN1Cc2c(C(C)C)cc(C(=O)N3Cc4ccccc4C3)c(O)c2C1=O [KUNB26] | ≥ 10 µM | 0.53 µM | Selectivity (Hsp90β): ≥19 |
| CC1Cc2c(C(C)C)cc(C(=O)N3Cc4ccccc4C3)c(O)c2C1=O (stereo not drawn) [KUNB28] | ≥ 10 µM | 0.295 µM | Selectivity (Hsp90β): ≥34 |
| CC(C)c1cc(C(=O)N2Cc3ccc(F)cc3C2)c2oncc2c1O [KUNB31b, (5-fluoroisoindolin-2-yl)(4-hydroxy-5-isopropylbenzo[d]isoxazol-7-yl)methanone] |  |  | selectivity for Hsp90β over Grp94 (Grp94): ~50 fold; selectivity for Hsp90β over Hsp90α (Hsp90β): ~50 fold |
| CC(C)c1cc(C(=O)N2Cc3ccccc3C2)c(O)cc1N [NH2] | 0.46 ± 0.22 µM | 0.71 µM |  |
| CNCc1cc(O)c(C(=O)N2Cc3ccccc3C2)cc1C(C)C [NHCH3] | > 100 µM | 23.2 ± 1.07 µM |  |
| CC(C)c1cc(C(=O)N2Cc3ccccc3C2)c(O)cc1CO [OH] | 4.21 ± 0.62 µM | 1.97 ± 0.07 µM |  |
| COCc1cc(O)c(C(=O)N2Cc3ccccc3C2)cc1C(C)C [OMe] | > 50 µM | > 50 µM |  |
| CC(C)c1cc(C(=O)N2Cc3ccccc3C2)c(O)c(CO)c1O [drawing 45] |  |  | IC50 (NCI-H23 cells): 3.9 ± 0.33 µM; IC50 (MCF-7): 13.7 ± 1.46 µM; IC50 (SkBr3): 9.13 ± 1.03 µM |
